Reference: US10000534B2, “Peptide having osteoblast proliferation activity and periodontal ligament fibroblast proliferation activity, and use of same” (CAREGEN CO., LTD., priority 2014, dated 2018)
Ends that are not written are not given here.

Legend:
[1] = test system: MC3T3-E1 cells; test: RT-PCR of osteogenic differentiation-related genes (BSP, COL1A1) in MC3T3-E1 cells; type: cell-based; settings: MC3T3-E1, peptide 10 ug/ml and 50 ug/ml, 2 days; FIGS. 3a and 3b
Method: In order to investigate the mRNA expression levels of osteogenic differentiation-related genes, bone sialoprotein (BSP) and collagen type I alpha 1 (COL1A1) by the sequence peptides synthesized in synthesis example 1, MC3T3-E1 cells were placed in a 6-well plate to 2×10^5 cells, and then cultured for 24 hours under conditions of 37° C. and 5% CO2. After 24 hours, the medium containing FBS 10% was treated with the respective peptides at 10 ug/ml and 50 ug/ml, and BMP2 used at a positive control at 100 ng/ml. After 2 days, the washing was conducted with PBS, and then RNA was isolated using Easy blue (Intron). cDNA was synthesized using 1 ug of RNA and RT premixture (Intron), and PCR was conducted using PCR premixture (Bioneer), and then the resulting product was loaded on agarose gel to investigate the mRNA expression degree of each gene.

[2] = test system: MC3T3-E1 cells; test: Western blotting of pSmad1/5/8 in MC3T3-E1 cells; type: cell-based; settings: MC3T3-E1, peptide 10 ug/ml, 15 and 30 minutes, FIGS. 4a and 4b
Method: In order to investigate whether pSmad1/5/8, which is a signal involved in the promotion of osteogenic differentiation, was activated by the present peptides, MC3T3-E1 cells were placed in a 6-well plate at 2×10^5 cells, and then cultured for 24 hours under the conditions of 37° C. and 5% CO2. After 24 hours, the medium was exchanged with a medium without serum, followed by culture for 24 hours. Then, the resulting product was treated with the respective peptides at 10 ug/ml, and BMP2 used at a positive control at 50 ng/ml. After 15 minutes and 30 minutes, the washing was conducted with PBS, and then a lysis buffer was added to obtain proteins through lysis, followed by western blotting.

[3] = test system: human periodontal ligament fibroblasts; test: SRB assay of human periodontal ligament fibroblast growth; type: cell-based; settings: peptide 0.05-10 ug/ml, 72 hours, serum-free; FIGS. 6a and 6b
Method: In order to investigate the effects of the peptides of SEQ ID NO: 1 and SEQ ID NO: 2 on the periodontium, the human periodontal ligament fibroblast promoting effects were analyzed. The periodontal ligament fibroblasts were placed in a 48-well plate to 1×10^3 cells, and then cultured for 24 hours under conditions of 37° C. and 5% CO2. After 24 hours, the exchange with the medium not containing serum was conducted, followed by culture for 6 hours. Thereafter, the resulting product was treated with the peptides at concentrations of 0.05-10 ug/ml and BMP-2 and IGF-1 used as positive controls at a concentration of 0.2 ug/ml, followed by culture for 72 hours. After the completion of the culture, the culture supernatant was removed and the cells were immobilized using ethanol. After the cell immobilization was ended, the cells were washed three times with phosphate buffer saline (PBS). After the wash solution was removed, the cells were treated with colorimetric SRB solution, and sufficiently washed with 1% acetic acid. Then, the cells were observed using a microscope to observe the conditions of living cells. The absorbance for the solution decolorized with 20 mM tris was read at UV light of 560 nm, thereby measuring the survival conditions of cells.

[4] = test system: MC3T3-E1 cells; test: Alkaline phosphatase (ALP) staining of MC3T3-E1 cells (osteoblast differentiation); type: cell-based; settings: MC3T3-E1, peptide 10 ug/ml and 50 ug/ml, 13 days; FIGS. 2a and 2b
Method: In order to analyze the BMP2-like action of the sequence peptides synthesized in synthesis example 1, the osteoblast differentiation promoting effect was investigated through alkaline phosphatase (ALP) staining of MC3T3-E1 cells, which are a pre-osteoblast cell line. The MC3T3-E1 cells were placed in a 24-well plate to 3×10^4 cells, and then cultured for 24 hours under conditions of 37° C. and 5% CO2. After 24 hours, the alpha-MEM medium containing 10% FBS and 50 ug/ml ascorbic acid+100 mM b-glycerophosphate was treated with the synthetic peptides at concentrations of 10 ug/ml and 50 ug/ml, and then the culture was conducted for 13 days while the medium was exchanged every three days. The culture-completed plate well was washed two times with PBS, and then the cells were immobilized with an immobilization buffer, in which acetone, 37% formaldehyde, and citric acid solution were mixed, for 30 seconds. The following staining was carried out using the leukocyte alkaline phosphatase staining kit (SIGMA).
The cells were treated for 2 minutes with an FBB-alkaline solution and a sodium nitrite solution mixed at 1:1, and then treated with a buffer composed of distilled water and naphthol AS-BI alkaline solution, followed by color development in an incubator at 37° C. for 1 hour.

[5] = test system: C2C12 cells; test: MTT assay of cell proliferation in C2C12 cells; type: cell-based; settings: peptide 10 μg/ml, 72 hours, serum-free, FIGS. 1a and 1b
Method: In order to analyze the BMP2-like action of the sequence peptides synthesized in synthesis example 1, MTT assay was conducted using C2C12 cells, which are a myoblast cell line, to investigate the proliferation promoting effect.
The C2C12 cells were cultured in Dulbecco's modified Eagle's medium (DMEM, Gibco) supplemented with 10% fetal bovine serum (FBS, Sigma) using a 500 ml-flask for tissue culture. The cultured cell lines were carefully detached from the bottom of the culture container using a 1% trypsin solution, followed by centrifugation, thereby obtaining only cell precipitates. The cell precipitates were re-suspended in DMEM culture medium supplemented without FBS, and then added to a 96-well plate for tissue culture at 1×10^3 cells per each well, followed by culture under conditions of 37° C. and 5% CO2 for 24 hours. After 24 hours, the medium was changed with the same culture liquid completely excluding serum, and then the blank sample and each of the synthetic peptide were dissolved sterile in distilled water, and the mixture was cultured at a concentration of 10 μg/ml for 72 hours under the same conditions. The MTT sample was added to the culture-completed well, and after 4 hour, the formed formazan was dissolved in DMSO, and then the absorbance was measured at 560 nm to determine cell proliferation.

[6] = test system: human periodontal ligament fibroblasts; test: Western blotting of p-PI3K and p-Akt in periodontal ligament fibroblasts; type: cell-based; settings: peptide 10 ug/ml, 5-15 minutes, FIGS. 7a and 7b
Method: In order to investigate the human periodontal ligament fibroblast growth promoting effects by the peptides of SEQ ID NO: 1 and SEQ ID NO: 2, the phosphorylation degrees of related signaling molecules were analyzed using western blotting. The periodontal ligament fibroblasts were placed in a 6-well plate to 5×10^5 cells, and then cultured for 24 hours under conditions of 37° C. and 5% CO2. Thereafter, the resulting product was treated with the peptides at a concentration of 10 ug/ml and bFGF used as a positive control at a concentration of 0.2 ug/ml. Then, the cells were collected by culture times of 5-15 minutes, and the total proteins were isolated, and then western blotting was conducted with respect to p-PI3K and p-Akt.

[7] = test system: periodontal ligament fibroblasts; test: RT-PCR of COL1A1 and DSPP mRNA in periodontal ligament fibroblasts; type: cell-based, human; settings: peptide 1 and 10 ug/ml, 72 hours, FIGS. 8a and 8b
Method: In order to investigate the periodontal ligament fibroblast activity promoting effects by the peptides of SEQ ID NO: 1 and SEQ ID NO: 2, the mRNA expression of related genes was analyzed using RT-PCR. The periodontal ligament fibroblasts were placed in a 24-well plate to 1.5×10^4 cells, and then cultured for 24 hours under conditions of 37° C. and 5% CO2. After 24 hours, the exchange with the medium not containing serum was conducted, followed by culture for 24 hours. Thereafter, the resulting product was treated with the peptides at concentrations of 1 and 10 ug/ml and BMP-2 and IGF-1 used as positive controls at a concentration of 0.2 ug/ml, followed by culture for 72 hours. After the completion of the culture, the washing was conducted with PBS, and then RNA was isolated using Easy blue (Intron). cDNA was synthesized using 1 ug of RNA and RT premixture (Intron), and PCR was conducted using PCR premixture (Bioneer), and then the resulting product was loaded on agarose gel to investigate the mRNA level of each marker.

[8] = test system: Balb/c mouse; test: Collagen sponge transplant in Balb/c mouse, H&E staining of osteocytes permeation and differentiation; type: in vivo; settings: collagen sponge with 100 ug peptide transplanted into the back, 2 weeks, FIG. 5
Method: A collagen sponge with a size of 0.5 mm×0.5 mm was wetted with 100 ug of the peptide of SEQ ID NO: 1, transplanted into the back of the Balb/c mouse, and then left for 2 weeks. Thereafter, the collagen sponge was extracted, and then made into a paraffin block, and then the degree of osteocytes permeation and differentiation in the collagen sponge were measured through H&E staining (FIG. 5).

Row | Sequence | mRNA expression levels of osteogenic differentiation genes (BSP, COL1A1) [1] | phosphorylation of Smad1/5/8 [2] | periodontal ligament fibroblast cell growth (SRB, absorbance 560 nm) [3] | ALP expression (ALP staining) [4] | growth of osteoblasts (cell proliferation, MTT, absorbance at 560 nm) [5] | phosphorylation level of Akt [6] | phosphorylation level of PI3K [6] | mRNA expression level of alpha-1 type I collagen (COL1A1) [7] | mRNA expression level of dentin sialophosphoprotein (DSPP) [7] | bone formation promoting effect (osteocytes permeation, proliferation and differentiation in collagen sponge, H&E) [8]
1 | FDMGAYKSSK [SEQ ID NO: 2] | increases in the mRNA expression levels | promotion of the phosphorylation of Smad1/5/8 | cell growth increase in a dose-dependent manner | increase in the ALP expression | significantly promoted the growth of osteoblasts | increases in the phosphorylation levels | increases in the phosphorylation levels | increases in the mRNA expression levels | increases in the mRNA expression levels | –
2 | RSLNLRDSQKS [SEQ ID NO: 1] | increases in the mRNA expression levels | promotion of the phosphorylation of Smad1/5/8 | cell growth increase in a dose-dependent manner | increase in the ALP expression | significantly promoted the growth of osteoblasts | increases in the phosphorylation levels | increases in the phosphorylation levels | increases in the mRNA expression levels | increases in the mRNA expression levels | bone formation promoting effect
